Results on four compounds are retold here after US20230212191A1, “SPIRO-SULFONIMIDAMIDE DERIVATIVES AS INHIBITORS OF MYELOID CELL LEUKEMIA-1 (MCL-1) PROTEIN” (PRELUDE THERAPEUTICS, INCORPORATED, priority 2020, published 2023).

One experiment addresses T1, MCL-1 (Homo sapiens, UniProt Q07820).
T1 construct: purchased BPS Bioscience
Kind of experiment: Cell free Mcl-1:Bim affinity assay (fluorescence polarization competition). Format: binding. The following applies: 15 nM MCL-1, 5 nM FITC-Bim tracer, 1 hour at room temperature; Ki calc. from IC50 by Nikolovska-Coleska's equation; read-out: BIM_ Ki. On the procedure:
Cell Free Mcl-1:Bim Affinity Assay (Mcl-1 Bim)
The binding affinity of each compound was measured via a fluorescence polarization competition assay, in which the compound competes for the same binding site with the ligand, and thus leads to a dose-dependent anisotropy reduction. The tracer ligand utilized was a fluorescein isothiocyanate labelled peptide (FITC-[…]) derived from Bim (GenScript).
The assay was carried out in black half-area 96-well NBS plate (Corning), containing 15 nM of MCL-1 (BPS Bioscience), 5 nM of FITC-Bim and 3-fold serial diluted test compounds in a total volume of 50 μL of assay buffer (20 mM HEPES, 50 mM NaCl, 0.002% Tween 20, 1 mM TCEP, and 1% DMSO). The reaction plate was incubated for 1 hour at room temperature. The change of anisotropy is measured with an Envision multimode plate reader (PerkinElmer) at emission wavelength 535 nm. Fluorescence polarization was calc. in mP unit and the percentage inhibition was calc. by % inhibition=100×(mPDMSO−mP)/(mPDMSO−mPPC), in which mPDMSO is the DMSO control, and mPPC is the positive control. IC50 values were determined from a 10-point dose response curve by fitting the percent inhibition against compound concentration using the GraphPad Prism software. The inhibition constant Ki was subsequently calc. according to the Nikolovska-Coleska's equation (Anal. Biochem., 2004, 332, 261),
where [I]50 is the concentration of the free inhibitor at 50% inhibition, [L]50 is the concentration of the free labeled ligand at 50% inhibition, [P]0 is the concentration of the free protein at 0% inhibition, and Kd is the dissociation constant of the protein-ligand complex.

The subject of the next experiment is H929 cells. Kind of experiment: Cell viability assay (H929 10 FBS). In kind it is cell-based. The following applies: Homo sapiens, NCI-H929, 24 h, CellTiter-Glo or ATPlite, read-out: H929_10FBS IC50. On the procedure: Cell Viability Assay (H929 10 FBS)
Dispense 10 μL aliquot of prepared H929 cells (1:1 ratio of cells:Trypan Blue (#1450013, Bio-Rad)) onto cell counting slide (#145-0011, Bio-Rad) and obtain cell density and cell viability using cell counter (TC20, Bio-Rad). Remove appropriate volume of resuspended cells from culture flask to accommodate 4000 cells/well @ 10 μL/well. Transfer H929 cells to 50 mL conical (#430290, Corning). Spin down at 1000 rpm for 5 min using tabletop centrifuge (SPINCHRON 15, Beckman). Discard supernatant and resuspend cell pellet in modified RPMI 1640 (#10-040-CV, Corning) cell culture media containing 10% FBS (F2422-500 ML, Sigma), sodium pyruvate (100 mM) (#25-000-CL, Corning), HEPES buffer (1 M) (#25-060-CL, Corning) and glucose (200 g/L) (A24940-01, Gibco) to a cell density of 400,000 cells/mL. Dispense 10 μL of resuspended H929 cells per well in 384-well small volume TC treated plate (#784080, Greiner Bio-one) using standard cassette (#50950372, Thermo Scientific) on Multi-drop Combi (#5840310, Thermo Scientific) in laminar flow cabinet. Dispense compounds onto plates using digital liquid dispenser (D300E, Tecan). Incubate plates in humidified tissue culture incubator @ 37° C. for 24 hours. Add 10 μL of prepared CellTiTer-Glo® detection buffer (G7570, Promega) or ATPlite 1Step detection reagent (#6016731, Perkin Elmer) to each well of 384-well plate using small tube cassette (#24073295, Thermo Scientific) on Combi multi drop, incubate @ RT for 30-60 min. Read plates with microplate reader (PheraStar, BMG Labtech) using 384 well luminescence mode.
(In ATP-based viability assays light output follows the ATP content of the culture.)

T1 sequence (Q07820 whole entry): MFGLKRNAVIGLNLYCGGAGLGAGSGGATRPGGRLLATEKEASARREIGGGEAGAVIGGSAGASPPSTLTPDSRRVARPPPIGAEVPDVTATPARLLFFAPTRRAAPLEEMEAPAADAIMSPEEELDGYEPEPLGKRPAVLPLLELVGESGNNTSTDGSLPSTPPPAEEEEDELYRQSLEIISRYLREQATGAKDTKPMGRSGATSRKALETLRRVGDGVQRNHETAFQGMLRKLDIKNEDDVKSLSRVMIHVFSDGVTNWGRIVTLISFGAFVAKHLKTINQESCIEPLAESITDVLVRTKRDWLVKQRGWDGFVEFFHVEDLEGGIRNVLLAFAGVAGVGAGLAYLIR

Usually Ki stands for a measure of affinity in units of concentration, obtained from inhibition or displacement. The term IC50 denotes the concentration needed to halve the response being measured. `CCNC(=O)NS1(=O)=NC(=O)C(C)(C)OC/C=C/[C@H](OC)[C@@H]2CC[C@H]2CN2C[C@@]3(CCCc4cc(Cl)ccc43)COc3ccc1cc32` (stereo partly drawn) [Example 20, 1-[(3R,6R,7S,8E,22S)-7′-Chloro-7-methoxy-12,12-dimethyl-13,15-dioxospiro[11,20-dioxa-15-thia-1,14-diazatetracyclo[14.7.2.03,6.019,24]pentacosa-8,14,16,18,24-pentaene-22,4′-2,3-dihydro-1H-naphthalene]-15-yl]-3-ethylurea]: the inhibitory constant (Ki) on MCL-1 is less than 1 nM. In addition, the concentration for half-maximal inhibition (IC50) in the experiment with H929 cells is less than 100 nM.
For the compound `CO[C@H]1/C=C/COC(C)(C)C(=O)N=S(=O)(NC(=O)N2CC(N(C)C)C2)c2ccc3c(c2)N(C[C@@H]2CC[C@H]21)C[C@@]1(CCCc2cc(Cl)ccc21)CO3` (stereo partly drawn) [Example 33, N-[(3R,6R,7S,8E,22S)-7′-Chloro-7-methoxy-12,12-dimethyl-13,15-dioxospiro[11,20-dioxa-15-thia-1,14-diazatetracyclo[14.7.2.03,6.019,24]pentacosa-8,14,16,18,24-pentaene-22,4′-2,3-dihydro-1H-naphthalene]-15-yl]-3-(dimethylamino)azetidine-1-carboxamide], the Ki on MCL-1 is less than 1 nM. Moreover, the IC50 in the experiment with H929 cells was less than 100 nM.
As for `CO[C@H]1/C=C/COC(C)(C)C(=O)N=S(=O)(NC(=O)c2cnn(C)c2)c2ccc3c(c2)N(C[C@@H]2CC[C@H]21)C[C@@]1(CCCc2cc(Cl)ccc21)CO3` (stereo partly drawn) [Example 15, N-[(3R,6R,7S,8E,22S)-7′-Chloro-7-methoxy-12,12-dimethyl-13,15-dioxospiro[11,20-dioxa-15-thia-1,14-diazatetracyclo[14.7.2.03,6.019,24]pentacosa-8,14,16,18,24-pentaene-22,4′-2,3-dihydro-1H-naphthalene]-15-yl]-1-methylpyrazole-4-carboxamide], the inhibition constant Ki on MCL-1 is less than 1 nM. Besides, in the experiment on H929 cells, the half-inhibitory concentration (IC50) is less than 100 nM.
The corresponding values for `COc1nn(C)cc1C(=O)NS1(=O)=NC(=O)C(C)(C)OC/C=C/[C@H](OC)[C@@H]2CC[C@H]2CN2C[C@@]3(CCCc4cc(Cl)ccc43)COc3ccc1cc32` (stereo partly drawn) [Example 16, N-[(3R,6R,7S,8E,22S)-7′-Chloro-7-methoxy-12,12-dimethyl-13,15-dioxospiro[11,20-dioxa-15-thia-1,14-diazatetracyclo[14.7.2.03,6.019,24]pentacosa-8,14,16,18,24-pentaene-22,4′-2,3-dihydro-1H-naphthalene]-15-yl]-3-methoxy-1-methylpyrazole-4-carboxamide] are less than 1 nM and less than 100 nM.
